For the assay, the target named is T1, 6HIS-Tev-LRRK2 (1326-2527) (Homo sapiens, UniProt Q5S007).
T1 construct: A LRRK2 cDNA encoding residues 1326-2527 was received from Dundee University; made in house; host or cells: Spodoptera frugiperda Sf9 (baculovirus, pFB-HTb)
T1 sequence (Q5S007 1326-2527): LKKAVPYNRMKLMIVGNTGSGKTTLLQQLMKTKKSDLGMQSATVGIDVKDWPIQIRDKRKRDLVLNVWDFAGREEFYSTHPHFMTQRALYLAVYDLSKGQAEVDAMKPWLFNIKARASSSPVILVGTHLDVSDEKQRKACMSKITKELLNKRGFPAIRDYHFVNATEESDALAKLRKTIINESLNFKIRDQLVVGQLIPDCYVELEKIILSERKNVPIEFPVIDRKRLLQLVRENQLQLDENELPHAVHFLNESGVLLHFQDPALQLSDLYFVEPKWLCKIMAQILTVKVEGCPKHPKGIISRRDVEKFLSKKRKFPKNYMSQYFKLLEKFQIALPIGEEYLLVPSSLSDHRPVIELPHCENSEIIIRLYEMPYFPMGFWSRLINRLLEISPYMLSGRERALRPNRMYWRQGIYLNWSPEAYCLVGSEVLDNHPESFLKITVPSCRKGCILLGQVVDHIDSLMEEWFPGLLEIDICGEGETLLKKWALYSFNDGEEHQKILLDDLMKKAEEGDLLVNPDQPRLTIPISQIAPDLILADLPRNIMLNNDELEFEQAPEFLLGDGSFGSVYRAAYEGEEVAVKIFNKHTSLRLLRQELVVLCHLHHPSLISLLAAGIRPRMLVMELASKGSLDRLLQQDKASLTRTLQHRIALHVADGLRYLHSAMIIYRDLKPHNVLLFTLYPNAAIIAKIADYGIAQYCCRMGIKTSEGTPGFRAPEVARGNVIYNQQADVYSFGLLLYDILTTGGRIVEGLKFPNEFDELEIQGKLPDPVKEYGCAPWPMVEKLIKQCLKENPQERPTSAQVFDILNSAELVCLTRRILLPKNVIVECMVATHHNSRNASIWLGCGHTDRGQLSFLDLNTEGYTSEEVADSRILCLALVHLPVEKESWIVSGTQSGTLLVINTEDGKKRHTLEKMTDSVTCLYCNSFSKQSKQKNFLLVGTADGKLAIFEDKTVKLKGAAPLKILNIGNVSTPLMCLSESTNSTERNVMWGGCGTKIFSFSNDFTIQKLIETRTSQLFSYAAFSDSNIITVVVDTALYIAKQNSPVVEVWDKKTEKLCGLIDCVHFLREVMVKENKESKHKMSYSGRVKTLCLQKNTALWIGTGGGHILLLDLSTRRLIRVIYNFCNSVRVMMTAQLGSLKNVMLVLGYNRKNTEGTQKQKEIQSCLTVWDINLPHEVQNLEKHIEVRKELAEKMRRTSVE
Put plainly: Recombinant LRRK2 enzyme peptide substrate TR-FRET assay. Type of assay: biochemical. The note with it: 60 nM LRRK2 enzyme, 10 uM ATP. The method, then:
A LRRK2 cDNA encoding residues 1326-2527 was received from Dundee University (described in M. Jaleel et al., 2007, Biochem J, 405: 407-417). This gene fragment was subcloned into pFB-HTb (Invitrogen) using BamHI and NotI restriction sites. The LRRK2 plasmid was recombined into the baculovirus genome according to the BAC-to-BAC protocol described by Invitrogen. Transfection into Spodoptera frugiperda (Sf9) insect cells was performed using Cellfectin (Invitrogen), according to the manufacturer's protocol to generate P1 and P2 baculovirus stocks.
Sf9 cells were grown in HyClone SFX (Thermo Scientific) growth media at 27° C., 80 rpm in shake flask until of a sufficient volume to inoculate a bioreactor. The cells were grown in a 20 liter working volume Wave bioreactor (GE Healthcare) at 27° C., 50% dissolved oxygen and an agitation rate 22 rocks per minute, 10 degree rock angle, 200 ml/min air with a cell concentration of approximately 6×e6 cells/ml. The cells were infected with P2 Baculovirus at a multiplicity of infection (MOI) of 3. The cultivation was continued for a 48 hour expression phase. The infected cells were removed from the growth media by centrifugation at 2500 g using a Sorvall RC 3C Plus centrifuge at 2500 g for 20 minutes. The cell pellet was immediately frozen and subsequently supplied for purification.
A 260 g pellet was allowed to thaw in a water bath at 27° C. with 800 ml lysis buffer/buffer A (50 mm Tris-HCl pH 8.5, 300 mM NaCl, 1 mm DTT, 10% glycerol, 1 ml/L calbiochem complete protease inhibitor cocktail and benzonase (50 ul/800 ml)) before being dounce homogenised on ice using 20 strokes per 100 ml. The suspension was packed in ice and sonicated at 50% amplitude for 3 min 10 sec on/off using a ¾″ probe. The suspension was then centrifuged at 100,000 g for 90 min, at 4° C.
The lysate (700 ml) was decanted from the insoluble pellet and contacted for 3 h at 4 C with 10 ml His bind Ni NTA resin by end over end mixing. The resin was recovered by centrifugation, 3000 g, 5 min at 4 C, and packed in an XK16 column. The column was then washed with 10 column volumes buffer A, 10 column volumes buffer B (buffer A+1M NaCl) and 10 column volumes buffer C (buffer A+20 mM imidazole). The column was then eluted with 15 column volumes buffer D (buffer A+300 mM imidazole) collecting 2 ml fractions. All washes and elution were conducted at 4 ml/min.
Fractions identified by SDS-PAGE as containing protein of interest were pooled and loaded directly onto a 320 ml SEC Superdex 200 pg column that was pre-equilibrated with buffer E (50 mM Tris-HCl pH 8.5, 300 mM NaCl, 10% glycerol, 1 mM DTT). The column was loaded and eluted with 1.2 column volumes buffer E at 2 ml/min collecting 2 ml fractions. Fractions identified by SDS-PAGE as containing protein of interest were tested for activity.
Production of Biotin-Loner LRRKtide
The peptide (biotin-[…]-OH) was assembled at a […] scale using FMOC solid phase peptide synthesis on an ACT 357 MPS automated peptide synthesizer. The resulting crude peptide was cleaved from the resin using a 95:2.5:2.5 mix of trifluoroacetic acid: triisopropylsilane: water. The crude cleaved peptide was purified by reverse phase HPLC, eluting with a 5-35% gradient of 0.1% trifluoroacetic acid/acetonitrile in 0.1% trifluoroacetic acid/water.
Recombinant LRRK2 Enzyme Peptide Substrate TR-FRET Assay
This assay for LRRK2 inhibition is based on the detection of phosphorylation of the peptide ‘longer LRRKtide’ (biotin-[…]-OH) using a time resolved-fluorescence resonance energy transfer (TR-FRET) assay. It uses an antibody labelled europium chelate donor, W-1024 (Eu) and Streptavidin-Surelight APC acceptor (APC). When in close proximity, the excitation of Eu at 330 nm leads to energy transfer to APC with emission of light at 665 nm,
Assay Protocol • 1. A 10 mM test compound was dissolved in 100% DMSO and serially diluted 1 in 4. […]
(In general: Time-resolved FRET reads energy transfer from a long-lived donor to a nearby acceptor.)

The mark [1] stands for this setting: read-out: pIC50 in the recombinant LRRK2 enzyme peptide substrate TR-FRET assay (converted).
Where [2] appears, read: 1 uM Biotin-longer LRRKtide, read-out: recombinant LRRK2 enzyme peptide substrate TR-FRET assay (pIC50) (converted).

13 compounds from patent US10618901B2 (GlaxoSmithKline Intellectual Property Development Limited, priority 2014, dated 2020) can be followed below.

Read-outs that look alike come from different tables or passages of the source.

Take “cis-3-(4-((4-ethoxy-7H-pyrrolo[2,3-d]pyrimidin-2-yl)amino)-5-methyl-1H-pyrazol-1-yl)cyclopentanol [Example E56]”: the “recombinant LRRK2 enzyme peptide substrate TR-FRET assay (pIC50)” value (1 uM Biotin-longer LRRKtide) worked out at 8.1.
Turning to `CCOc1nc(Nc2cnn(CCOC)c2Cl)nc2[nH]ccc12` [Example E21, N-(5-chloro-1-(2-methoxyethyl)-1H-pyrazol-4-yl)-4-ethoxy-7H-pyrrolo-[2,3-d]-pyrimidin-2-amine], under setting [1], the IC50 was not above 100 nM.
On the same count and under the same terms, under `CCOc1nc(Nc2cnn(C3CCN(C4COC4)C3)c2C)nc2[nH]ccc12` (single isomer, unassigned) [Example E67, 4-ethoxy-N-(5-methyl-1-(1-(oxetan-3-yl)-pyrrolidin-3-yl)-1H-pyrazol-4-yl)-7H-pyrrolo-[2,3-d]pyrimidin-2-amine] stands not above 100 nM.
For the compound `CCOc1nc(Nc2cnn(C3CCN(C)C3)c2C)nc2[nH]ccc12` (single isomer, unassigned) [Example E14, 4-ethoxy-N-(5-methyl-1-(1-methylpyrrolidin-3-yl)-1H-pyrazol-4-yl)-7H-pyrrolo-[2,3-d]-pyrimidin-2-amine], the IC50 under setting [2] is 12.6 nM.
On the same count and under the same terms, next, `CCOc1nc(Nc2cnn(CC(C)(C)O)c2C)nc2[nH]ccc12` [Example E3, 1-(4-((4-ethoxy-7H-pyrrolo-[2,3-d]pyrimidin-2-yl)amino)-5-methyl-1H-pyrazol-1-yl)-2-methylpropan-2-ol]: 12.6 nM.
In the case of “trans-2-(5-chloro-4-((4-ethoxy-7H-pyrrolo-[2,3-d]-pyrimidin-2-yl)amino)-1H-pyrazol-1-yl)cyclopentanol [Example E38]”, the “recombinant LRRK2 enzyme peptide substrate TR-FRET assay (pIC50)” value (1 uM Biotin-longer LRRKtide) is 9.1.
Take `CCOc1nc(Nc2cnn(CCN3CCOCC3)c2C)nc2[nH]ccc12` [Example E45, 4-ethoxy-N-(5-methyl-1-(2-morpholinoethyl)-1H-pyrazol-4-yl)-7H-pyrrolo-[2,3-d]pyrimidin-2-amine]: the IC50 under setting [2] is 10 nM.
For `CCOc1nc(Nc2cnn(C3CCOCC3)c2C2CC2)nc2[nH]ccc12` [Example E44, N-(5-cyclopropyl-1-(tetrahydro-2H-pyran-4-yl)-1H-pyrazol-4-yl)-4-ethoxy-7H-pyrrolo-[2,3-d]pyrimidin-2-amine], under setting [2], the IC50 is 7.94 nM.
`CCOc1nc(Nc2cnn(C3CCCC3(C)O)c2C)nc2[nH]ccc12` (racemic) [Example E70, Trans-2-(4-((4-ethoxy-7H-pyrrolo-[2,3-d]pyrimidin-2-yl)amino)-5-methyl-1H-pyrazol-1-yl)-1-methylcyclopentanol]: the IC50 under setting [1] is not above 100 nM.
For the compound “trans-2-(4-((4-ethoxy-7H-pyrrolo-[2,3-d]pyrimidin-2-yl)amino)-5-methyl-1H-pyrazol-1-yl)-cyclopentanol [Example E40]”, the “recombinant LRRK2 enzyme peptide substrate TR-FRET assay (pIC50)” value (1 uM Biotin-longer LRRKtide) was found to be 8.3.
As for “trans-2-(4-((4-ethoxy-7H-pyrrolo-[2,3-d]pyrimidin-2-yl)amino)-5-methyl-1H-pyrazol-1-yl)-cyclopentanol [Example E41]”, the “recombinant LRRK2 enzyme peptide substrate TR-FRET assay (pIC50)” value (1 uM Biotin-longer LRRKtide) is listed as 8.
On to `CCOc1nc(Nc2cnn(C3CC(O)C3)c2C)nc2[nH]ccc12` (stereo not shown) [Example E52, 3-(4-((4-ethoxy-7H-pyrrolo-[2,3-d]-pyrimidin-2-yl)-amino)-5-methyl-1H-pyrazol-1-yl)cyclo-butanol], for which, under setting [2], the IC50 was 7.94 nM.
“trans-2-(5-chloro-4-((4-ethoxy-7H-pyrrolo-[2,3-d]-pyrimidin-2-yl)amino)-1H-pyrazol-1-yl)-cyclopentanol [Example E37]”: the “recombinant LRRK2 enzyme peptide substrate TR-FRET assay (pIC50)” value (1 uM Biotin-longer LRRKtide) was 9.
